Data as given in patent US20240269139A1, “COMPOUNDS FOR TARGETED PROTEIN DEGRADATION OF KINASES” (DANA-FARBER CANCER INSTITUTE, INC., priority 2020, published 2024).
Where two headings read alike, the source gives them in different places.

Tests used:
Assay type in all cases: cell-based
[1] = biological target: T1, protein kinases (human kinome) (Homo sapiens, UniProt P29320)
T1 sequence (P29320 21-983): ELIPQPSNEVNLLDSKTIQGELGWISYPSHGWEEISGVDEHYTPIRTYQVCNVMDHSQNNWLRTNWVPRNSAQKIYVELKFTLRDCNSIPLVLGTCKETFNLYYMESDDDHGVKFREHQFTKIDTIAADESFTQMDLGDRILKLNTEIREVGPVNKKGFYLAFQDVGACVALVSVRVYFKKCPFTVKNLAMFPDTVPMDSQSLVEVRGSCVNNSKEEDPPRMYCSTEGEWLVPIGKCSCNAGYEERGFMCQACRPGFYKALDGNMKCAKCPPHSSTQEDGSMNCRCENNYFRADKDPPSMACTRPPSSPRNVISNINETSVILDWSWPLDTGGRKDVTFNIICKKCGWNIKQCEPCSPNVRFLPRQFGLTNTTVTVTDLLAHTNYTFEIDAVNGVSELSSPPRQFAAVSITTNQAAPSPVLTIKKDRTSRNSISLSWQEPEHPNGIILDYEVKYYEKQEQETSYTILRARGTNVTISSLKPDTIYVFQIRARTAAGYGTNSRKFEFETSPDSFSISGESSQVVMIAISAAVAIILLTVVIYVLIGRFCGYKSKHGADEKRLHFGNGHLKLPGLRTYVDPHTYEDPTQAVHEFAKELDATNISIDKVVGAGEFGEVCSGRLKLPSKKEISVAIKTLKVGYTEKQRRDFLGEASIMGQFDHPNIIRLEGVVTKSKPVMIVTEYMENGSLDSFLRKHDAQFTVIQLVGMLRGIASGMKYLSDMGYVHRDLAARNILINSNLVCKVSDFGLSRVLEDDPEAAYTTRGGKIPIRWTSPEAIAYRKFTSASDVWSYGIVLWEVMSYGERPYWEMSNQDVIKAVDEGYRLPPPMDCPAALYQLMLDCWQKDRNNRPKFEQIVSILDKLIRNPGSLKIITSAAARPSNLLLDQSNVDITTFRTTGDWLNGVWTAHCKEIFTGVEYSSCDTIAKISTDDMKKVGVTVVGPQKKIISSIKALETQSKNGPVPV

[2] = biological target: protein kinases (human kinome) (Homo sapiens, UniProt Q15418); conditions: for logFC: RPS6KA1 (Q15418-1), direction down
protein kinases (human kinome) (Homo sapiens, UniProt Q15418), sequence (Q15418 whole entry): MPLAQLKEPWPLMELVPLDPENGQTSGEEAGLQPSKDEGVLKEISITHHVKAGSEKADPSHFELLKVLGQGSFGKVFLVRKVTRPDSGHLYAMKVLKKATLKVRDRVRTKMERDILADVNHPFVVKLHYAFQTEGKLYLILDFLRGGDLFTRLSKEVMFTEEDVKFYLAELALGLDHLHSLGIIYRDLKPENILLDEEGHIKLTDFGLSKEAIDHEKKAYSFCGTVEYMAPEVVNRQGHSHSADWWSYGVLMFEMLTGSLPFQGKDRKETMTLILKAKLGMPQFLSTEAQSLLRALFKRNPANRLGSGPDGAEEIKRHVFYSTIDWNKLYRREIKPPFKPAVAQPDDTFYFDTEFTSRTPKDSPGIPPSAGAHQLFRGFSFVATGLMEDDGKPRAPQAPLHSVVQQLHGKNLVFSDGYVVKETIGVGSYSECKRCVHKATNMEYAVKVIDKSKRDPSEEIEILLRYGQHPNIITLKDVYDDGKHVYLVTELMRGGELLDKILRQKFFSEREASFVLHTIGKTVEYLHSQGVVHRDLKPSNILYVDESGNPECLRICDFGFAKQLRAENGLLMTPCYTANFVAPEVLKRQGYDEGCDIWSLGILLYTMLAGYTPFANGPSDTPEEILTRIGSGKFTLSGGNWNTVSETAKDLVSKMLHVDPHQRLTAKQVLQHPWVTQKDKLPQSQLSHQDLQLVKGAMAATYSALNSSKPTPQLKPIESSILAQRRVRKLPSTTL

[3] = biological target: T2, protein kinases (human kinome) (Homo sapiens, UniProt Q9UBE8)
T2 sequence (Q9UBE8 1-527): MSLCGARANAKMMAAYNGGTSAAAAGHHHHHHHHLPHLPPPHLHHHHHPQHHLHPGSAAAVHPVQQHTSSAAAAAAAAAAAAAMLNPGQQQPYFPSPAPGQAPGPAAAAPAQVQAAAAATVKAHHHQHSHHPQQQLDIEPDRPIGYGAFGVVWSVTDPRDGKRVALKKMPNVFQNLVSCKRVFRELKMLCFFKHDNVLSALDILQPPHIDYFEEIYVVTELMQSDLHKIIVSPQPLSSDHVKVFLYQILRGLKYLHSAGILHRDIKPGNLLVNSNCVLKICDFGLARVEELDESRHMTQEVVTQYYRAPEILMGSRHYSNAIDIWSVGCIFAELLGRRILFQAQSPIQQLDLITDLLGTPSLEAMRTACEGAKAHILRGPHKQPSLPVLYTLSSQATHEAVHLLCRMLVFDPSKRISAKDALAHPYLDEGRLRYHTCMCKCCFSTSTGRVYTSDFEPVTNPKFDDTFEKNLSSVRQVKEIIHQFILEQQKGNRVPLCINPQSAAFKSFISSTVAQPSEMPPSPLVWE

[4] = biological target: protein kinases (human kinome) (Homo sapiens, UniProt P35790); conditions: CHKA P35790
protein kinases (human kinome) (Homo sapiens, UniProt P35790), sequence (P35790 whole entry): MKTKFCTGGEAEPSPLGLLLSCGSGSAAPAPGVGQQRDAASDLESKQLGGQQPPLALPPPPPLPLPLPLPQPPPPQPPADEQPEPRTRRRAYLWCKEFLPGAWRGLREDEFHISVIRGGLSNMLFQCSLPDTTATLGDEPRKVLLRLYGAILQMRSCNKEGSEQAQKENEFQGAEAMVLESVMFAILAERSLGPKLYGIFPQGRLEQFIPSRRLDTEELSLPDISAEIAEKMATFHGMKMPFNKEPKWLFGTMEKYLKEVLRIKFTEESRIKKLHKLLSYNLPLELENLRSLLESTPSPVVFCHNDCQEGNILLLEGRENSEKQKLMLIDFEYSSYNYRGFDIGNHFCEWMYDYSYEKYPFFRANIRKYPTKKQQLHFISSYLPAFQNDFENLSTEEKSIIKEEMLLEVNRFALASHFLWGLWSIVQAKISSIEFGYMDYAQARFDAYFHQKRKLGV

[5] = biological target: protein kinases (human kinome) (Homo sapiens, UniProt Q16659); conditions: MAPK6 (Q16659), experiment wp131
protein kinases (human kinome) (Homo sapiens, UniProt Q16659), sequence (Q16659 whole entry): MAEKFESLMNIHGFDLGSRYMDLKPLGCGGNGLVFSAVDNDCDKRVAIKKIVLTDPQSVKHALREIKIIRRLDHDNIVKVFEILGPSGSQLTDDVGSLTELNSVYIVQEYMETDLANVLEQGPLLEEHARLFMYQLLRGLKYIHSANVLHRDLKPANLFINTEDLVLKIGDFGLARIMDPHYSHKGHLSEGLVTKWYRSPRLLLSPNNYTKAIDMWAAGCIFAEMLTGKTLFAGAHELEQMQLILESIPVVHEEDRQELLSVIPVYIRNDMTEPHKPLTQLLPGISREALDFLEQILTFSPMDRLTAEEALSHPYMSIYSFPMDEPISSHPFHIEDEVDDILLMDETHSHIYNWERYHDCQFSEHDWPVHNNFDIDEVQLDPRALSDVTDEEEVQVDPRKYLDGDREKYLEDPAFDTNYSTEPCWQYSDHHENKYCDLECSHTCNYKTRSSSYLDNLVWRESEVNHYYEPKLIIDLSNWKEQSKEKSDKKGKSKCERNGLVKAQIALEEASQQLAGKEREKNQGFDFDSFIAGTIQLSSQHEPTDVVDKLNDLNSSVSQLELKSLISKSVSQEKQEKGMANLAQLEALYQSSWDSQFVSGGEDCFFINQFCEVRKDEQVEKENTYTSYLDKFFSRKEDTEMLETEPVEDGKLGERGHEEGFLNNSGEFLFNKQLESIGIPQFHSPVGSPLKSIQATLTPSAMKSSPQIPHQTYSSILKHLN

[6] = biological target: protein kinases (human kinome) (Homo sapiens, UniProt Q9BVS4); conditions: RIOK2 Q9BVS4
protein kinases (human kinome) (Homo sapiens, UniProt Q9BVS4), sequence (Q9BVS4 whole entry): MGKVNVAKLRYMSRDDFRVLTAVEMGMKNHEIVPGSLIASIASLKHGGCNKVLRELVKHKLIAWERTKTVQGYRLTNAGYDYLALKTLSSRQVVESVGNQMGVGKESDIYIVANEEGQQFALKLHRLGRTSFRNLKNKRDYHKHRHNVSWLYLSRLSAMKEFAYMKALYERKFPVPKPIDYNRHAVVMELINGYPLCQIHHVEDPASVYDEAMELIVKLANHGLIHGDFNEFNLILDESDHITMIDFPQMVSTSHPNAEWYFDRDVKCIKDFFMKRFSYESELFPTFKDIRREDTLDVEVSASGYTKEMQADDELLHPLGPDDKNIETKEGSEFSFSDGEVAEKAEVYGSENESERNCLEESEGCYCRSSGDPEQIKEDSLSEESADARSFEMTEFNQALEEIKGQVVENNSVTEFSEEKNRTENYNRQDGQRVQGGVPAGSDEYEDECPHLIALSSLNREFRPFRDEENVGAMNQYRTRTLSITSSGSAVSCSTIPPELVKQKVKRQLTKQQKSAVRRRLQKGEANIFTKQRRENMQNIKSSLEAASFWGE

[7] = biological target: protein kinases (human kinome) (Homo sapiens, UniProt O94804); conditions: STK10 (O94804)
protein kinases (human kinome) (Homo sapiens, UniProt O94804), sequence (O94804 whole entry): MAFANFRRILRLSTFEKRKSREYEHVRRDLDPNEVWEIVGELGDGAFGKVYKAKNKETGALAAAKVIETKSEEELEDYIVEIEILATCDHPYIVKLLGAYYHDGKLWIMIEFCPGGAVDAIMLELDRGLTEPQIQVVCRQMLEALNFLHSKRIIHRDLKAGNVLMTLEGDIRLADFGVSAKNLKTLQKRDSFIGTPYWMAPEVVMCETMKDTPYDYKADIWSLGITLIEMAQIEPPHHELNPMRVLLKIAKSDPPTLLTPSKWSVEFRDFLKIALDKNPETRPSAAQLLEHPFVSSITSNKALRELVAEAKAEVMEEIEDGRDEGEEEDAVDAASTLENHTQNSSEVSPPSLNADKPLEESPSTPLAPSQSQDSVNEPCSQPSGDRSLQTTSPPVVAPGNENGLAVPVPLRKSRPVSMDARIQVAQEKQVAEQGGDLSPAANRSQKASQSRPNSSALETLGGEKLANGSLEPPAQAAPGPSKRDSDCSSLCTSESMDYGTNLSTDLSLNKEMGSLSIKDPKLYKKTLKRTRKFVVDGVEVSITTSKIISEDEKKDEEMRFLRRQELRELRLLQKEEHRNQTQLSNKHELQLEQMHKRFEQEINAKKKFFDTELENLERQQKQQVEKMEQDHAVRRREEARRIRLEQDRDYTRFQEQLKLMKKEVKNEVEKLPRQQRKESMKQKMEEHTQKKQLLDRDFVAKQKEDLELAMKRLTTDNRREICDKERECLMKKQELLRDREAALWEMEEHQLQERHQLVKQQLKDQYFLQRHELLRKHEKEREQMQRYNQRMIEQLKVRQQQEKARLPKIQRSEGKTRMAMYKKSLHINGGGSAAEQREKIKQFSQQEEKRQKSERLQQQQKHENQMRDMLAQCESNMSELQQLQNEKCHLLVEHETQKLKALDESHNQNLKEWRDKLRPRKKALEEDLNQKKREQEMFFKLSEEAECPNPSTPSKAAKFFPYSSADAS

[8] = biological target: protein kinases (human kinome) (Homo sapiens, UniProt Q15208); conditions: for logFC: STK38 (Q15208)
protein kinases (human kinome) (Homo sapiens, UniProt Q15208), sequence (Q15208 whole entry): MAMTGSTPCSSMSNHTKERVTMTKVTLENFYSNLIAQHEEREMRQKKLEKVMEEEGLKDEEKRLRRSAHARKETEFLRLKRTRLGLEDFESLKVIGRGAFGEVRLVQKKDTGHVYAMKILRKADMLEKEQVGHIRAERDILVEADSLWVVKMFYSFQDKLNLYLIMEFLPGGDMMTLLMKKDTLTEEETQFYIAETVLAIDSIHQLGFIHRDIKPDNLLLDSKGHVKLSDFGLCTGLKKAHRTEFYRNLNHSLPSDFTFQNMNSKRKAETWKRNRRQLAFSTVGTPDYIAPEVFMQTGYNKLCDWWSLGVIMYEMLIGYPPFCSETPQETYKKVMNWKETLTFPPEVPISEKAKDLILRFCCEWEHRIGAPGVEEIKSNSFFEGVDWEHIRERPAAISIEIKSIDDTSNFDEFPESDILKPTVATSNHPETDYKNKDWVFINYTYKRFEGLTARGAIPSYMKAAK

Cc1ccc(NC(=O)c2cccc(C(F)(F)F)c2)cc1N1Cc2cnc(Nc3ccc(N4CCN(Cc5cn(CCCCCOc6cccc7c6C(=O)N(C6CCC(=O)NC6=O)C7=O)nn5)CC4)nc3)nc2N(C)C1=O (centres unmarked) [DB0646, N-(3-(7-((6-(4-((1-(5-((2-(2,6-Dioxopiperidin-3-yl)-1,3-dioxoisoindolin-4-yl)oxy)pentyl)-1H-1,2,3-triazol-4-yl)methyl)piperazin-1-v)pyridin-3-yl)amino)-1-methyl-2-oxo-1,4-dihydropyrimido[4,5-d]pyrimidin-3(2H)-yl)-4-methylphenyl)-3-(trifluoromethyl)benzamide]
logFC EPHA3 ([1]; Accession P29320, experiment wp045, direction down): −0.5333
logFC EPHA3 ([1]; Accession P29320, experiment wp103, direction down): −0.3715
logFC EPHA3 ([1]; Accession P29320, experiment wp107, direction down): −0.4346
logFC EPHA3 ([1]; Accession P29320, experiment wp117, direction down): −0.3587
logFC EPHA3 ([1]; Accession P29320, experiment wp152, direction down): −0.3871
logFC EPHA3 ([1]; Accession P29320, experiment wp160, 4 hr, direction down): −0.5814
logFC EPHA3 ([1]; Accession P29320, experiment wp160, 8 hr, direction down): −0.5528
logFC EPHA3 ([1]; EPHA3 (P29320), experiment wp045): −0.5333
logFC EPHA3 ([1]; EPHA3 (P29320), experiment wp103): −0.3715
logFC EPHA3 ([1]; EPHA3 (P29320), experiment wp107): −0.4346
logFC EPHA3 ([1]; EPHA3 (P29320), experiment wp117): −0.3587
logFC EPHA3 ([1]; EPHA3 (P29320), experiment wp152): −0.3871
logFC EPHA3 ([1]; EPHA3 (P29320), experiment wp160, 4 hr): −0.5814
logFC EPHA3 ([1]; EPHA3 (P29320), experiment wp160, 8 hr): −0.5528
logFC ([2]; experiment wp160, 8 hr): −0.413
logFC RPS6KA1 (Q15418-1) ([2]; experiment wp160, 8 hr): −0.413
logFC ([3]; NLK (Q9UBE8), experiment wp117, direction down): −0.501
logFC ([3]; NLK (Q9UBE8), experiment wp160, 8 hr, direction down): −0.5569
logFC ([3]; NLK Q9UBE8, experiment wp117): −0.501
logFC ([3]; NLK Q9UBE8, experiment wp160, 8 hr): −0.5569
logFC ([4]; experiment wp152): −0.3979
logFC ([4]; experiment wp160, 8 hr): −0.4303

Cc1ccc(NC(=O)c2cccc(C(F)(F)F)c2)cc1N1Cc2cnc(Nc3ccc(N4CCN(CCCOc5cccc6c5C(=O)N(C5CCC(=O)NC5=O)C6=O)CC4)nc3)nc2N(C)C1=O (centres unmarked) [DB0662]
logFC ([2]; experiment wp168): −0.4724
logFC RPS6KA1 (Q15418-1) ([2]; experiment wp168): −0.4724
logFC ([4]; experiment wp168): −0.3222

Cc1ncsc1-c1ccc([C@H](C)NC(=O)[C@@H]2C[C@@H](O)CN2C(=O)[C@@H](NC(=O)CCOCCOCCN2CCN(c3ccc(Nc4ncc(Cl)c(Nc5ccccc5S(=O)(=O)C(C)C)n4)cc3)CC2)C(C)(C)C)cc1 [FMF.06.098.1]
logFC [5]: −0.4123
logFC MAPK6 [5]: −0.4123
logFC ([4]; experiment wp108): −0.3716
logFC ([4]; experiment wp131): −0.4457

O=C1CCC(N2C(=O)c3cccc(NCCCCCCCCN4CCC(NC(=O)c5[nH]ncc5NC(=O)c5c(Cl)cccc5Cl)CC4)c3C2=O)C(=O)N1 (centres unmarked) [MFH.5.126.1]
logFC ([6]; experiment wp076): −0.7874
logFC RIOK2 ([6]; experiment wp076): −0.7874
logFC ([4]; experiment wp076): −0.4653

CC(C)S(=O)(=O)c1ccccc1Nc1nc(Nc2ccc(N3CCN(CCOCCOCCNC(=O)CNc4cccc5c4C(=O)N(C4CCC(=O)NC4=O)C5=O)CC3)cc2)ncc1Cl (centres unmarked) [TL12.186]
logFC ([2]; experiment wp131): −0.3562
logFC RPS6KA1 (Q15418-1) ([2]; experiment wp131): −0.3562
logFC [5]: −1.488
logFC ([5]; direction down): −1.488
logFC ([3]; NLK (Q9UBE8), experiment wp137, direction down): −0.5154
logFC ([3]; NLK Q9UBE8, experiment wp137): −0.5154
logFC ([7]; experiment wp016): −0.3819
logFC ([7]; experiment wp016, direction down): −0.3819
logFC ([6]; experiment wp131): −0.9134
logFC RIOK2 ([6]; experiment wp131): −0.9134
logFC ([6]; experiment wp137): −0.7728
logFC RIOK2 ([6]; experiment wp137): −0.7728
logFC ([4]; experiment wp131): −0.3954

CC(C)S(=O)(=O)c1ccccc1Nc1nc(Nc2ccc(N3CCN(CCOCCOCCC(=O)NCCNc4cccc5c4CN(C4CCC(=O)NC4=O)C5=O)CC3)cc2)ncc1Cl (centres unmarked) [TL13.97]
logFC ([7]; experiment wp137): −0.3477
logFC ([7]; experiment wp137, direction down): −0.3477
logFC ([8]; experiment wp137): −0.3912
logFC of STK38 (Q15208) ([8]; experiment wp137): −0.3912

NC(=O)c1c(F)cccc1Nc1nc(Nc2ccc(S(=O)(=O)NCCOCCOCCOCCOCCNc3cccc4c3C(=O)N(C3CCC(=O)NC3=O)C4=O)cc2)ncc1Br (centres unmarked) [TMX.02.138]
logFC ([8]; experiment wp146): −0.3476
logFC of STK38 (Q15208) ([8]; experiment wp146): −0.3476

Cc1cc(Nc2ncc(Br)c(Nc3cccc(F)c3C(N)=O)n2)ccc1S(=O)(=O)NCCOCCOCCOCCOCCNc1cccc2c1C(=O)N(C1CCC(=O)NC1=O)C2=O (centres unmarked) [TMX.02.174]
logFC ([8]; experiment wp146): −0.4117
logFC of STK38 (Q15208) ([8]; experiment wp146): −0.4117
